Test results reported in US20040102511A1, “Substituted pyrrole derivatives” (priority 2002, published 2004).
Counter-ions that a name gives are not always drawn.

Molecular target: T1, HMG-CoA reductase (Rattus norvegicus, UniProt P51639)
T1 construct: were preincubated with liver microsomes at 37° C. for 30 minutes; from tissue
T1 sequence (P51639 1-887): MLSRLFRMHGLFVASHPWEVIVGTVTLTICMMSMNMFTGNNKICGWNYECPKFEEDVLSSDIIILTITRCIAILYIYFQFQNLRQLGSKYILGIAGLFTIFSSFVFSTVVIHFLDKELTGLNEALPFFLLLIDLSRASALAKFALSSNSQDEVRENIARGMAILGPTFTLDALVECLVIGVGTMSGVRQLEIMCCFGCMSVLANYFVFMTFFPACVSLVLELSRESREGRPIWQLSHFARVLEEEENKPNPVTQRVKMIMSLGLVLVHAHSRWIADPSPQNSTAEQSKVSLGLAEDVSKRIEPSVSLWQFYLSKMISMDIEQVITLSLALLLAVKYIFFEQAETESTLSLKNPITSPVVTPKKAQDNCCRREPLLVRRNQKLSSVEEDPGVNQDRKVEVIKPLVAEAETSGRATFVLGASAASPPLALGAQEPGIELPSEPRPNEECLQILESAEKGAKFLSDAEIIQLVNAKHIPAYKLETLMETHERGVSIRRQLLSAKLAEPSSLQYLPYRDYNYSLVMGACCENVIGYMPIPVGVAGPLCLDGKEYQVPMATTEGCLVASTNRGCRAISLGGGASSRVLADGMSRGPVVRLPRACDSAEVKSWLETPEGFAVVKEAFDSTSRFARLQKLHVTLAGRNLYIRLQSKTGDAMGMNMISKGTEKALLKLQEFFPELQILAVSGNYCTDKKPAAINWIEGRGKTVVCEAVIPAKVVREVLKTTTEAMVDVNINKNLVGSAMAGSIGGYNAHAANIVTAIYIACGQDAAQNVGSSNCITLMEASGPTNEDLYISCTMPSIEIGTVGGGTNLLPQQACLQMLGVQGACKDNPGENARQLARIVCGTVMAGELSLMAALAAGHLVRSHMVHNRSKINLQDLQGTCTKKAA
Assay: in-vitro HMG-CoA reductase enzyme assay (liver microsomes, [14C] HMG-CoA)
Type: biochemical
Details: 2.5 μM [14C] HMG-CoA as substrate, 37° C. for 15 minutes; compounds preincubated with liver microsomes at 37° C. for 30 minutes
Method: HMG-CoA reductase is a rate-limiting enzyme in the cholesterol biosynthesis, catalyzing the following reaction.
[^14C] HMG-CoA+2NADPH+2H^+→[^14C] mevanolate+CoA+2NADP^+ microsomes,
HMG-CoA as a substrate. The reaction was carried out in the presence of 100 mM KH2PO4, 20 mM G-6-P, 2.5 mM NADPH, 10 mM EDTA, 5 mM DTT and […] G-6-P dehydrogenase, at 37° C. for 15 minutes and quantitating [^14C] mevalonate as an end product.

Row | Compound | IC50
1 | CC(C)c1c(C(=O)Nc2ccccc2F)c(-c2ccccc2)c(-c2ccc(F)cc2)n1CC[C@@H](O)C[C@@H](O)CC(=O)O [Compound No. 2, (3R,5R)-7-[2-(4-Fluorophenyl)-5-isopropyl-3-phenyl-4-[(2-fluorophenylamino)carbonyl]-pyrrol-1-yl]-3,5-dihydroxy-1-heptanoic acid calcium salt] | 0.0177 nM
2 | CC(C)c1c(C(=O)Nc2ccccc2)c(-c2ccccc2)c(-c2ccc(F)c(F)c2)n1CC[C@@H](O)C[C@@H](O)CC(=O)O [Compound No. 13, (3R,5R)-7-[2-(3,4-Difluorophenyl)-5-isopropyl-3-phenyl-4-[(phenylamino)carbonyl]-pyrrol-1-yl]-3,5-dihydroxy-1-heptanoic acid calcium salt] | 0.00625 nM
3 | (3R,5R)-7-[2,3-Di-(4-fluorophenyl)-5-isopropyl-4-[(phenylamino) carbonyl]-pyrrol-1-yl]-3,5-dihydroxy-1-heptanoic acid calcium salt [Compound No. 16] | 0.0345 nM
4 | (3R,5R)-7-[2-(4-Fluorophenyl)-5-isopropyl-3-(2,4-difluorophenyl)-4-[(phenylamino)carbonyl]-1H-pyrrol-3,5-dihydroxy-1-heptanoic acid calcium salt [Compound No. 15] | 0.0122 nM
5 | (3R,5R)-7-[2-(4-Fluorophenyl)-5-isopropyl-3-phenyl-4-[(3-fluorophen ylamino)carbonyl]-pyrrol-1-yl]-3,5-dihydroxy 1-heptanoic acid calcium salt [Compound No. 3] | 0.0239 nM
6 | (3R,5R)-7-[2-(4-Fluorophenyl)-5-isopropyl-3-phenyl-4-[(4-fluorophenylamino)carbonyl]-pyrrol-1-yl]-3,5-dihydroxy-1-heptanoic acid calcium salt [Compound No. 4] | 0.0098 nM
7 | (3R,5R)-7-[2-(4-Fluorophenyl)-5-isopropyl-3-phenyl-4-[(pyridin-2-yl-amino)carbonyl]pyrrol-1-yl]-3,5-dihydroxy-1-heptanoic acid calcium salt [Compound No. 5] | 0.0195 nM

Other lines, results leading:

Row | IC50 | Compound
8 | 0.0123 nM | CC(C)c1c(C(=O)Nc2ccccc2)c(-c2ccccc2)c(-c2ccc(F)cc2F)n1CC[C@@H](O)C[C@@H](O)CC(=O)O [Compound No. 12, (3R,5R)-7-[2-(2,4-Difluorophenyl)-5-isopropyl-3-phenyl-4-[(phenylamino)carbonyl]-pyrrol-1-yl]-3,5-dihydroxy-1-heptanoic acid calcium salt]
9 | 0.034 nM | Cc1ccc(-c2c(C(=O)Nc3ccccc3)c(C(C)C)n(CC[C@@H](O)C[C@@H](O)CC(=O)O)c2-c2ccc(F)cc2)cc1 [Compound No. 17, (3R,5R)-7-[2-(4-Fluorophenyl)-5-isopropyl-3-(4-methylphenyl)-4-[(phenylamino)carbonyl]-pyrrol-1-yl]-3,5-dihydroxy-1-heptanoic acid calcium salt]
10 | 0.0126 nM | CC(C)c1c(C(=O)Nc2ccccc2)c(-c2ccc(C(F)(F)F)cc2)c(-c2ccc(F)cc2)n1CC[C@@H](O)C[C@@H](O)CC(=O)O [Compound No. 18, (3R,5R)-7-[2-(4-Fluorophenyl)-5-isopropyl-3-(4-trifluoromethylphenyl)-4-[(phenylamino)carbonyl]-pyrrol-1-yl]-3,5-dihydroxy-1-heptanoic acid calcium salt]
11 | 0.0124 nM | O=C(O)C[C@H](O)C[C@H](O)CCn1c(-c2ccc(F)cc2)c(-c2ccccc2)c(C(=O)Nc2ccccc2)c1C1CC1 [Compound No. 19, (3R,5R)-7-[2-(4-Fluorophenyl)-5-cyclopropyl-3-phenyl-4-[(phenylamino)carbonyl]-pyrrol-1-yl]-3,5-dihydroxy-1-heptanoic acid calcium salt]
12 | 0.0385 nM | CC(C)c1nc(N(C)S(C)(=O)=O)nc(-c2ccc(F)cc2)c1/C=C/[C@@H](O)C[C@@H](O)CC(=O)O [Rosuvastatin, reference compound]
